# Source: patent US20220243210A1, “ANGIOTENSIN II TYPE 1 RECEPTOR TARGETED OLIGONUCLEOTIDES AND USES THEREOF” (Ionis Pharmaceuticals, Inc., priority 2019, published 2022)
# Oligonucleotides are written 5' to 3', each unit as a sugar letter and its base; * is a phosphorothioate linkage, no mark a phosphodiester; rarer units and linkages stand in square brackets, end groups in braces. Plain capitals give the bases only. k = constrained ethyl (cEt); [5mC] = 5-methylcytosine; d = 2'-deoxy (DNA)
# Key:
# [1] = biological target: T1, human AGTR1 (Homo sapiens, UniProt P30556); test: AGTR1 signaling, IP-One Gq kit (IP1 accumulation), HEK-AGTR1 FAP cells; format: cell-based; settings: 90 minutes
# T1 construct: host or cells: HEK293 (HEK-AGTR1 FAP cells)
# T1 sequence (P30556 1-359): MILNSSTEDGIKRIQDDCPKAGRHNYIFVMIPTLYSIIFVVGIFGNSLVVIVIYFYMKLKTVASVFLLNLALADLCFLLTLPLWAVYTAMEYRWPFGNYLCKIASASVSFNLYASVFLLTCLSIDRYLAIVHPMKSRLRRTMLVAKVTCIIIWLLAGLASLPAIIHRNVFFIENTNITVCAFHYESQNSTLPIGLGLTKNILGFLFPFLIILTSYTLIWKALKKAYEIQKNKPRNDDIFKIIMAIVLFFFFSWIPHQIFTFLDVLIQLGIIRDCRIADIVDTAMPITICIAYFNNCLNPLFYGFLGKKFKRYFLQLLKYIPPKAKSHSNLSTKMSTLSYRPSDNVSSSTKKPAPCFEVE
# Procedure: (§1) Activated AGTR1 couples to the Gαq subunit of heterotrimeric G proteins, which activates the phospholipase C (PLC) and subsequently inositol 1,4,5-trisphosphate (IP3) signaling cascade. AGTR1 signaling was measured using an IP-One Gq kit (cisbio #62IPAPEB). The kit detects the accumulation of inositol monophosphate (IP1), a stable downstream metabolite of IP3 induced by activation of a phospholipase C (PLC) cascade.
# An additional control compound, AngII, which consists of the peptide motif […], was also tested. […] AGTR1 activation was measured using the IP-One Gq kit.
# [2] = tested on: HEK-APLNR FAP cells; test: IP1 accumulation negative control in HEK-APLNR FAP cells (do not express AGTR1); format: cell-based, human; settings: 24 hours
# Procedure: as §1
# As a negative control, Compound Nos. 556089 and 1229761 were also tested in HEK293 cells expressing FAP tagged human Apelin receptor (HEK-APLNR FAP cells from Spectragenetics). […] HEK-APLNR FAP cells were cultured with Compound Nos. 556089 and 1229761, described herein above, at the concentrations detailed in Table 2 for 24 hours.
# [3] = tested on: human MALAT1 RNA; test: MALAT1 RNA reduction in HEK-AGTR1 FAP cells, free uptake, 24 hours; format: cell-based; settings: 24 hours; for MALAT (% control): relative to untreated control cells
# Procedure: At the end of the treatment period, total RNA was isolated from the cells and MALAT1 RNA levels were measured by quantitative real-time PC&. […] MALAT1 RNA levels were normalized according to total RNA content, as measured by RIBOGREEN®. Reduction of MALAT1 RNA is presented Table 3 below as percent MALAT1 RNA amount relative to untreated control (UTC) cells. The half maximal inhibitory concentration (IC50) of each modified oligonucleotide was calculated using a non-linear fit [inhibitor] vs. response—variable slope (four parameters) formula in GraphPad Prism 7.01.
# [4] = tested on: human MALAT1 RNA; test: MALAT1 RNA reduction in HEK-AGTR1 FAP cells, free uptake, 48 hours; format: cell-based; settings: 48 hours; for MALAT (% control): relative to untreated control cells
# Procedure: At the end of the treatment period, total RNA was isolated from the cells and MALAT1 RNA levels were measured by quantitative real-time PCR. […] MALAT1 RNA levels were normalized according to total RNA content, as measured by RIBOGREEN®. […] The half maximal inhibitory concentration (IC50) of each modified oligonucleotide was calculated using a non-linear fit [inhibitor] vs. response-variable slope (three parameters) formula in GraphPad Prism 7.01.
# [5] = tested on: mouse MALAT RNA; test: MALAT RNA reduction in vivo, C57BL6/J mice, multiple dose; settings: for ED50: IV day 0, 4, 8
# Procedure: Compound Nos. 556089, 1229761, and 1229762 are described in Table 1 above. Compound Nos. 556089, 1229761, and 1229762 were tested in C57BL6/J mice. The mice were divided into groups of 4 mice each. […] The mice were then sacrificed on day 12. Heart, adipose, adrenal, kidney, and liver tissue was then collected and homogenized and RNA analysis was performed. A group of 4 mice received PBS as a negative control.
# RNA was extracted from heart, adipose, adrenal, kidney, and liver tissue for real-time PCR analysis of measurement of RNA expression of MALAT using primer probe set mMALAT1 #2 (forward sequence […] (SEQ ID NO: 5); reverse sequence […] (SEQ ID NO: 6); probe sequence […] (SEQ ID NO: 7)). Results are presented as percent change of RNA, relative to PBS control, normalized to mouse GAPDH.
substance,measurement,setting,value
"Compound No. 556089: Control unconjugated parent modified oligonucleotide GCATTCTAATAGCAGC, cEt gapmer, phosphorothioate, complementary to mouse MALAT1 RNA (kG*k[5mC]*kA*dT*dT*d[5mC]*dT*dA*dA*dT*dA*dG*d[5mC]*kA*kG*k[5mC]) [reference compound]",IP1 accumulation,[1]; 0.0256 nM,696 nM
same,IP1 accumulation,[1]; 0.128 nM,669 nM
same,IP1 accumulation,[1]; 0.64 nM,692 nM
same,IP1 accumulation,[1]; 3.2 nM,658 nM
same,IP1 accumulation,[1]; 16 nM,646 nM
same,IP1 accumulation,[1]; 80 nM,605 nM
same,IP1 accumulation,[1]; 400 nM,648 nM
same,IP1 accumulation,[1]; 2000 nM,672 nM
same,IP1 accumulation,[2]; 0.0256 nM,584 nM
same,IP1 accumulation,[2]; 0.128 nM,536 nM
same,IP1 accumulation,[2]; 0.64 nM,563 nM
same,IP1 accumulation,[2]; 3.2 nM,538 nM
same,IP1 accumulation,[2]; 16 nM,526 nM
same,IP1 accumulation,[2]; 80 nM,514 nM
same,IP1 accumulation,[2]; 400 nM,553 nM
same,IP1 accumulation,[2]; 2000 nM,542 nM
same,MALAT (% control),[3]; 12 nM,86 % control
same,MALAT (% control),[3]; 37 nM,98 % control
same,MALAT (% control),[3]; 111 nM,91 % control
same,MALAT (% control),[3]; 333 nM,63 % control
same,MALAT (% control),[3]; 1000 nM,60 % control
same,MALAT (% control),[3]; 3000 nM,36 % control
same,MALAT (% control),[3]; 9000 nM,29 % control
same,IC50,"[3]; MALAT1 RNA, four parameter fit",850 nM
same,MALAT (% control),[4]; 2.7 nM,97 % control
same,MALAT (% control),[4]; 8.2 nM,100 % control
same,MALAT (% control),[4]; 24.7 nM,104 % control
same,MALAT (% control),[4]; 74.1 nM,99 % control
same,MALAT (% control),[4]; 222.2 nM,82 % control
same,MALAT (% control),[4]; 666.7 nM,68 % control
same,MALAT (% control),[4]; 2000 nM,43 % control
same,MALAT (% control),[4]; 6000 nM,25 % control
same,MALAT (% control),[4]; .10 nM,104 % control
same,MALAT (% control),[4]; .3 nM,106 % control
same,MALAT (% control),[4]; .9 nM,101 % control
same,IC50,"[4]; MALAT1 RNA, three parameter fit",1530 nM
same,MALAT-1 RNA (% control),"[5]; Adipose, 0.4 μmol/kg IV day 0, 4, 8, sacrifice day 12, relative to PBS",68.4 % control
same,MALAT-1 RNA (% control),"[5]; Adipose, 1.2 μmol/kg IV day 0, 4, 8, sacrifice day 12, relative to PBS",41.1 % control
same,MALAT-1 RNA (% control),"[5]; Adipose, 3.6 μmol/kg IV day 0, 4, 8, sacrifice day 12, relative to PBS",27.3 % control
same,ED50,[5]; Adipose,0.034 µmol/kg
same,MALAT-1 RNA (% control),"[5]; Adrenal, 0.4 μmol/kg IV day 0, 4, 8, sacrifice day 12, relative to PBS",95.2 % control
same,MALAT-1 RNA (% control),"[5]; Adrenal, 1.2 μmol/kg IV day 0, 4, 8, sacrifice day 12, relative to PBS",75.7 % control
same,MALAT-1 RNA (% control),"[5]; Adrenal, 3.6 μmol/kg IV day 0, 4, 8, sacrifice day 12, relative to PBS",64.1 % control
same,ED50,[5]; Adrenal,1.102 µmol/kg
same,MALAT-1 RNA (% control),"[5]; Heart, 0.4 μmol/kg IV day 0, 4, 8, sacrifice day 12, relative to PBS",76.7 % control
same,MALAT-1 RNA (% control),"[5]; Heart, 1.2 μmol/kg IV day 0, 4, 8, sacrifice day 12, relative to PBS",74.7 % control
same,MALAT-1 RNA (% control),"[5]; Heart, 3.6 μmol/kg IV day 0, 4, 8, sacrifice day 12, relative to PBS",45.7 % control
same,ED50,[5]; Heart,4.11 µmol/kg
same,MALAT-1 RNA (% control),"[5]; Kidney, 0.4 μmol/kg IV day 0, 4, 8, sacrifice day 12, relative to PBS",50.0 % control
same,MALAT-1 RNA (% control),"[5]; Kidney, 1.2 μmol/kg IV day 0, 4, 8, sacrifice day 12, relative to PBS",46.7 % control
same,MALAT-1 RNA (% control),"[5]; Kidney, 3.6 μmol/kg IV day 0, 4, 8, sacrifice day 12, relative to PBS",24.6 % control
same,ED50,[5]; Kidney,3.535 µmol/kg
same,MALAT-1 RNA (% control),"[5]; Liver, 0.4 μmol/kg IV day 0, 4, 8, sacrifice day 12, relative to PBS",35.8 % control
same,MALAT-1 RNA (% control),"[5]; Liver, 1.2 μmol/kg IV day 0, 4, 8, sacrifice day 12, relative to PBS",24.1 % control
same,MALAT-1 RNA (% control),"[5]; Liver, 3.6 μmol/kg IV day 0, 4, 8, sacrifice day 12, relative to PBS",7.2 % control
same,ED50,[5]; Liver,1.578 µmol/kg
